Laboratory results as given in paper PMC11873939, “Target Identification with Live-Cell Photoaffinity Labeling and Mechanism of Action Elucidation of ARN23765, a Highly Potent CFTR Corrector” (Journal of Medicinal Chemistry, 2025).

Experiments:
R170G-CFTR = target: T1, R170G-CFTR (Homo sapiens, UniProt P13569, R170G); experiment: Protein maturation assay (WB, band C/(C+B)) in transfected HEK293 cells; format: cell-based; details: HEK293, 24 h, 10 nM
T1 construct: CFTR identification in pull-down studies and analysis of full-length CFTR in protein maturation assays; expressed in transfected cells; host or cells: HEK293 (transient)
Protocol: (§1) HEK293 cells were plated in 24-wells at around 80% of confluence and transfected with constructs coding for F508del-CFTR or mutants using JetPEI reagent (101000053, Polyplus Technology) following the manufacturer’s instructions. After 24 h, the correctors were added for a further 24 h. Correctors were used at the following concentrations: ARN23765 (10 nM), VX-445 (3 μM), and 3151 (10 μM). For binding site analysis experiments, the cells were kept either at 37 °C (Figure S8) or moved to 30 °C (Figure 9) during incubation with the selected correctors. VX-445 and corrector 3151 were mixed together as a control for maximal protein correction. DMSO (0.2%) was added to nontreated controls. After treatment, cells were lysed in RIPA buffer [50 mM tris-HCl pH 8, 150 mM NaCl, 1% NP40, 0.5% sodium deoxycolate, 0.1% SDS, 2.0 mM EDTA] and lysates were analyzed with WB, as described in the supplementary methods of the Supporting Information.

F508del-CFTR [1] = target: T2, F508del-CFTR (Homo sapiens, UniProt P13569, DEL508-508); parameters: method as in PMID 32128418; details: bronchial epithelial cells from F508del-CFTR CF individuals; cited from earlier work
T2 construct: expressed in transfected cells

F508del-CFTR [2] = target: T2, F508del-CFTR; experiment: HS-YFP functional assay in CFBE41o- cells stably overexpressing F508del-CFTR; format: cell-based; details: 24 h treatment
Protocol: These analogues were tested in the functional assay on the human bronchial epithelia-derived cell line, CFBE41o-, which stably overexpresses F508del-CFTR and the halide-sensitive yellow fluorescent protein (HS-YFP).[31] […]
HS-YFP-based assay for CFTR activity
Twenty-four hours after seeding on 96-well plates, CFBE41o- cells stably over-expressing F508del-CFTR and the HS-YFP were treated with test compounds at different concentrations in the 3 nM-10 µM range.1 Cells treated with vehicle alone (DMSO) and with ARN23765, respectively, served as negative and positive controls. The following day, cells were washed with PBS containing (in mM) 137 NaCl, 2.7 KCl, 8.1 Na2HPO4, 1.5 KH2PO4, 1.0 CaCl2, and 0.5 MgCl2. Cells were then incubated for 25 min with […] of PBS plus forskolin (20 µM) and VX-770 (1 µM) to maximally stimulate F508del-CFTR. Cells were then transferred to a microplate reader (FluoStar Galaxy; BMG Labtech, Offenburg, Germany) for CFTR activity determination. The plate reader was equipped with high-quality excitation (HQ500/20X: 500 ± 10 nm) and emission (HQ535/30M: 535 ± 15 nm) filters for YFP (Chroma Technology). Each assay comprised a continuous 14 s fluorescence reading, 2 s before and 12 s after injection of […] of an iodide-containing solution (PBS with Cl- replaced by I-; final I- concentration […]). Data were normalized to the initial background-subtracted fluorescence. To determine I- influx rate, the final 11 s of the data for each well were fitted with an exponential function to extrapolate initial slope (dF/dt). Reproducibility of results was confirmed by performing three independent experiments. […]

F508del/R1070W-CFTR = target: T3, F508del/R1070W-CFTR (Homo sapiens, UniProt P13569, DEL508-508/R1070W); experiment: Protein maturation assay (WB, band C/(C+B)) in transfected HEK293 cells; format: cell-based; details: HEK293, 24 h; ARN23765 10 nM, VX-661 3 μM
T3 construct: CFTR identification in pull-down studies and analysis of full-length CFTR in protein maturation assays; expressed in transfected cells; host or cells: HEK293 (transient)
Protocol: as §1, with “Correctors were used at the following concentrations: ARN23765 (10 nM), VX-445 (3 μM), and 3151 (10 μM).” left out

T2 sequence (P13569 with tags, fused parts or gaps DEL508-508): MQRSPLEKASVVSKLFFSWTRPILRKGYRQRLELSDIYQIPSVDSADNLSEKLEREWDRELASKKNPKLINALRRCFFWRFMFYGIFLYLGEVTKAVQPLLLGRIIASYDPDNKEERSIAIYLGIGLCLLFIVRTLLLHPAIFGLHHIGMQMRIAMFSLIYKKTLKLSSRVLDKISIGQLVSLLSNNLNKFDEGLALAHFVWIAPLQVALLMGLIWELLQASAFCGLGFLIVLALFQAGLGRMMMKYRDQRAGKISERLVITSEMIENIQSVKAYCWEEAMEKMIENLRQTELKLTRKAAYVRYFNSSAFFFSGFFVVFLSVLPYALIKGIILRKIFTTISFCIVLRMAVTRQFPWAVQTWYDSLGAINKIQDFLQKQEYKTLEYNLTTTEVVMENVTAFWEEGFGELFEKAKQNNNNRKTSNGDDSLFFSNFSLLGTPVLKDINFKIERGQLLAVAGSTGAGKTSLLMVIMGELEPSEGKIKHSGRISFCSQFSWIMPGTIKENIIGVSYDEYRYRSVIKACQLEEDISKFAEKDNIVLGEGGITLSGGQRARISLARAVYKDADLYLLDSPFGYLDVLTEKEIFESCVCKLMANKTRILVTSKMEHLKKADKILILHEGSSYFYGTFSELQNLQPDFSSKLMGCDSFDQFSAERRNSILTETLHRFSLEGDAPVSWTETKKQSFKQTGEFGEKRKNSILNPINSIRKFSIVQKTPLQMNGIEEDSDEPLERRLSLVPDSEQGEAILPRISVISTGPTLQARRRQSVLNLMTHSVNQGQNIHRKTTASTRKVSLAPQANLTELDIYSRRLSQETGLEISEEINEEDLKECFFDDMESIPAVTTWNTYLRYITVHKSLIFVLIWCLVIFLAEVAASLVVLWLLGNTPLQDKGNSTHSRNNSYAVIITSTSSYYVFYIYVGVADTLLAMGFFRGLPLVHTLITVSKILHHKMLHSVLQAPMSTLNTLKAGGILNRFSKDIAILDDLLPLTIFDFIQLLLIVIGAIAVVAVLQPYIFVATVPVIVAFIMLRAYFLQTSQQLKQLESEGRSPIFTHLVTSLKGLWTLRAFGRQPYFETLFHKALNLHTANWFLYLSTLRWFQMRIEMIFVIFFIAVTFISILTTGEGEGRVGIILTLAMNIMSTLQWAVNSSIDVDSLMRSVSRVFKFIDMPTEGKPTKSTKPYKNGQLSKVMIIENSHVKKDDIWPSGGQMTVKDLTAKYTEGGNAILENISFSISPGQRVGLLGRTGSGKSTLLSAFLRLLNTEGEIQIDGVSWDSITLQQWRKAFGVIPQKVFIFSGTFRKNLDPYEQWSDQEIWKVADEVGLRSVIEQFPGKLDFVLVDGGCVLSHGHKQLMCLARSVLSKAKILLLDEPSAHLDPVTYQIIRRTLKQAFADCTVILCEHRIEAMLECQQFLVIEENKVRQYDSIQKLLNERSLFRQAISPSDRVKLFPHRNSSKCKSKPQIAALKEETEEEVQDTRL
T3 sequence (P13569 with tags, fused parts or gaps DEL508-508/R1070W): as the sequence (P13569 with tags, fused parts or gaps DEL508-508) above, with R1069W counted along it
T1 sequence (P13569 whole entry R170G): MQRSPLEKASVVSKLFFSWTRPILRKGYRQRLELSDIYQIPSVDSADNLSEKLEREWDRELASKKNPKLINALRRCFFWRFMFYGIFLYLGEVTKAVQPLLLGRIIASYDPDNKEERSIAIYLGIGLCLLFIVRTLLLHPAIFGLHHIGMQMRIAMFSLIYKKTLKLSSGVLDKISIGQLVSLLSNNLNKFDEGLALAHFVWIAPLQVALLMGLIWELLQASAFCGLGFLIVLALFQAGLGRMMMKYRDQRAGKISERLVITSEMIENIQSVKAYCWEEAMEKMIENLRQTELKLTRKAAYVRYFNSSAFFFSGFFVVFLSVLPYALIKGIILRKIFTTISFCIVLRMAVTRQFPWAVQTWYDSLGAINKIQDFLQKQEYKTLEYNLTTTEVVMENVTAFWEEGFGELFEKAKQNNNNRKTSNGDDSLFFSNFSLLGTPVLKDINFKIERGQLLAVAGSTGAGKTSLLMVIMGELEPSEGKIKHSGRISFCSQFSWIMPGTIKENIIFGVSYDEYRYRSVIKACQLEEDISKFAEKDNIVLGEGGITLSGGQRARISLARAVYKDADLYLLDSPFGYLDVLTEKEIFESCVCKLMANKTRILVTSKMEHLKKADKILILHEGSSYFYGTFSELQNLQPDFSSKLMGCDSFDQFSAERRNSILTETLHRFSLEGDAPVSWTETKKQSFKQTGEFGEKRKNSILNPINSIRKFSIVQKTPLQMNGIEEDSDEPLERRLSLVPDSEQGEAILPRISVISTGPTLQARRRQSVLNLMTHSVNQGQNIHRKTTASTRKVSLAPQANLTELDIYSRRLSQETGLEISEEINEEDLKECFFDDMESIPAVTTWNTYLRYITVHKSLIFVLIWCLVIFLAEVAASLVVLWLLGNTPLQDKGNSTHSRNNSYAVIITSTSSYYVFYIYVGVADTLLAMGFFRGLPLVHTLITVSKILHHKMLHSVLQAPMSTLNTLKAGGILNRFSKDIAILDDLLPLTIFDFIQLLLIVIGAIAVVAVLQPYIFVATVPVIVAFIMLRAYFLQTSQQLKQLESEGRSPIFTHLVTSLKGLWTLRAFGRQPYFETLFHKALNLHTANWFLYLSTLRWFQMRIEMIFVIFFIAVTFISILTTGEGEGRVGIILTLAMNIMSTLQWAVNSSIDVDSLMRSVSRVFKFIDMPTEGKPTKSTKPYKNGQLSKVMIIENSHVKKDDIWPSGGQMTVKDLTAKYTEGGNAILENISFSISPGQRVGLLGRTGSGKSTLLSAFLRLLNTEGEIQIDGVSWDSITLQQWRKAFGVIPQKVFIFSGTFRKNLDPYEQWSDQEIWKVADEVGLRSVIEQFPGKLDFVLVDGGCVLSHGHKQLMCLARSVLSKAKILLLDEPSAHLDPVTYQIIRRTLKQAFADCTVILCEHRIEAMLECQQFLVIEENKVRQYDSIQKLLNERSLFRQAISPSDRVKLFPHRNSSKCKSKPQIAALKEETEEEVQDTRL

For `CN(C(=O)c1cccc(-n2nc(C(F)(F)F)c3c2[C@@H](Oc2ccc(C(=O)O)cc2)CCC3)c1)c1ccc2c(c1)OC(F)(F)O2` [ARN23765], the R170G-CFTR maturation (R170G-CFTR) is given as “improving”, the “Potency in rescuing CFTR function” value (F508del-CFTR [1]) is given as “subnanomolar” and the EC50 (F508del-CFTR [2]; 3 nM-10 µM range) is given as < 3 nM. The “HS-YFP assay in CFBE41o- cells Emax” value (F508del-CFTR [2]; values normalized to DMSO-incubated cells) was 2.7 and the F508del/R1070W protein maturation (F508del/R1070W-CFTR) was “further enhanced”.
